Measured values reported in patent US6914045B2, “Glycopeptide antibiotics” (Wyeth Holdings Corporation, priority 2001, dated 2005).

Experiments:
Test in all cases: in vitro antibacterial evaluation, MIC by broth dilution
Type in all cases: cell-based
Escherichia coli = conditions: 18 hours at 35° C.
Procedure, shortened: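 Broth dilution MIC per NCCLS M7-A2 in Mueller-Hinton II medium, inoculum 5×10^5 CFU/mL, antibiotic range 64-0.06 μg/mL. MIC taken as lowest concentration inhibiting growth.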

Staphylococcus sp. = conditions: broth dilution, 18 hours at 35° C.; for MIC Staphylococcus aureus (ATCC 29213): strain ATCC 29213; for MIC Staphylococcus aureus (GC 1131): strain GC 1131; for MIC Staphylococcus aureus (GC 3051): strain GC 3051; for MIC Staphylococcus aureus (GC 3053): strain GC 3053; for MIC Staphylococcus aureus (GC 4541): strain GC 4541; for MIC Staphylococcus aureus (GC 4542): strain GC 4542; for MIC Staphylococcus aureus (GC 4544): strain GC 4544; for MIC Staphylococcus aureus (GC 4545): strain GC 4545
Protocol: (§1) Methods for in vitro Antibacterial Evaluation (Table 1)
(§2) The minimum inhibitory concentration (MIC), the lowest concentration of the antibiotic which inhibits growth of the test organism, is determined by the broth dilution method using Muller-Hinton II […] (Baltimore Biological Laboratories) following the recommendations of the National Committee for Clinical Laboratory Standards [Methods for dilution antimicrobial susceptibility tests for bacteria that grow aerobically, approved standard M7-A2, National Committee for Clinical Laboratory Standards, Villanova, Pa.].
(§3) An inoculum level of 5×10^5 CFU/mL, and a range of antibiotic concentrations (64-0.06 μg/mL) is used. […] The test organisms include a spectrum of Gram-positive bacteria comprised of Staphylococcus sp., Streptococcus sp. and Enterococcus sp. These organisms include recent clinical isolates that are resistant to methicillin, penicillin and/or vancomycin.

Enterococcus sp. = tested on: Enterococcus sp.
Protocol: as §1, §2, §3

Streptococcus sp. = tested on: Streptococcus sp.
Protocol: as §1, §2, §3

[1] = broth dilution, 18 hours at 35° C.

CCCCCCCN1CC(C(O)C2NC(=O)C(C(O)C3CNC(=N)N3)NC(=O)C(Cc3ccc(OC4OC(CO)C(OC5OC6COC7(OC6C(O)C5O)C5CC6CC(C5)CC7C6)C(O)C4O)cc3)NC(=O)C(C(C)c3ccccc3)NC(=O)CNC(=O)C(CO)NC2=O)N(C2OC(CO)C(O)C(O)C2O)C1=N (centres unmarked) [Example 83]
<0.12 µg/mL: MIC Streptococcus pneumoniae (GC 1894) (Streptococcus sp.; [1]) | MIC Streptococcus pneumoniae (GC 1894) (Streptococcus sp.; broth dilution, 18 hours at 35° C.; strain GC 1894)
2 µg/mL: MIC Escherichia coli (GC 4560) (Escherichia coli) | MIC Coagulase Negative Staphylococcus (GC 4547) (Staphylococcus sp.) | MIC Coagulase Negative Staphylococcus (GC 4549) (Staphylococcus sp.) | MIC Coagulase Negative Staphylococcus (GC 4551) (Staphylococcus sp.) | MIC Staphylococcus aureus-SMITH (GC 4543) (Staphylococcus sp.) | MIC Staphylococcus haemolyticus (GC 4546) (Staphylococcus sp.) | MIC Staphylococcus aureus (ATCC 29213) (Staphylococcus sp.) | MIC Staphylococcus aureus (GC 4541) (Staphylococcus sp.) | MIC Staphylococcus aureus-SMITH (GC 4543) (Staphylococcus sp.; strain GC 4543) | MIC Staphylococcus aureus (GC 4545) (Staphylococcus sp.) | MIC Staphylococcus haemolyticus (GC 4546) (Staphylococcus sp.; strain GC 4546) | MIC Coagulase Negative Staphylococcus (GC 4547) (Staphylococcus sp.; strain GC 4547) | MIC Coagulase Negative Staphylococcus (GC 4549) (Staphylococcus sp.; strain GC 4549) | MIC Coagulase Negative Staphylococcus (GC 4551) (Staphylococcus sp.; strain GC 4551) | MIC Enterococcus avium (GC 4558) (Enterococcus sp.; Enterococcus avium (GC 4558); broth dilution, 18 hours at 35° C.) | MIC Enterococcus faecalis (GC 4553) (Enterococcus sp.; Enterococcus faecalis (GC 4553); broth dilution, 18 hours at 35° C.) | MIC Enterococcus faecium (GC 2243) (Enterococcus sp.; Enterococcus faecium (GC 2243); broth dilution, 18 hours at 35° C.) | MIC Enterococcus avium (GC 4558) (Enterococcus sp.; [1]) | MIC Enterococcus faecalis (GC 4553) (Enterococcus sp.; [1]) | MIC Enterococcus faecium (GC 2243) (Enterococcus sp.; [1])
64 µg/mL: MIC Escherichia coli (ATCC 25922) (Escherichia coli)
0.25 µg/mL: MIC Streptococcus agalactiae (GC 4564) (Streptococcus sp.; [1]) | MIC Streptococcus pneumoniae (GC 4565) (Streptococcus sp.; [1]) | MIC Streptococcus pyogenes (GC 4563) (Streptococcus sp.; [1]) | MIC Streptococcus pyogenes (GC 4563) (Streptococcus sp.; broth dilution, 18 hours at 35° C.; strain GC 4563) | MIC Streptococcus agalactiae (GC 4564) (Streptococcus sp.; broth dilution, 18 hours at 35° C.; strain GC 4564) | MIC Streptococcus pneumoniae (GC 4565) (Streptococcus sp.; broth dilution, 18 hours at 35° C.; strain GC 4565)
32 µg/mL: MIC Escherichia coli (GC 4559) (Escherichia coli)
1 µg/mL: MIC Coagulase Negative Staphylococcus (GC 4548) (Staphylococcus sp.) | MIC Coagulase Negative Staphylococcus (GC 4548) (Staphylococcus sp.; strain GC 4548) | MIC Enterococcus faecium (GC 4557) (Enterococcus sp.; Enterococcus faecium (GC 4557); broth dilution, 18 hours at 35° C.) | MIC Enterococcus faecium (GC 4557) (Enterococcus sp.; [1])
0.5 µg/mL: MIC Streptococcus pneumoniae (ATCC 6301) (Streptococcus sp.; [1]) | MIC Streptococcus pneumoniae (ATCC 6301) (Streptococcus sp.; broth dilution, 18 hours at 35° C.; strain ATCC 6301)
4 µg/mL: MIC Staphylococcus aureus (GC 1131) (Staphylococcus sp.) | MIC Staphylococcus aureus (GC 3051) (Staphylococcus sp.) | MIC Staphylococcus aureus (GC 3053) (Staphylococcus sp.) | MIC Staphylococcus aureus (GC 4542) (Staphylococcus sp.) | MIC Staphylococcus aureus (GC 4544) (Staphylococcus sp.) | MIC Enterococcus faecalis (ATCC 29212) (Enterococcus sp.; Enterococcus faecalis (ATCC 29212); broth dilution, 18 hours at 35° C.) | MIC Enterococcus faecalis (GC 4552) (Enterococcus sp.; Enterococcus faecalis (GC 4552); broth dilution, 18 hours at 35° C.) | MIC Enterococcus faecalis (GC 4554) (Enterococcus sp.; Enterococcus faecalis (GC 4554); broth dilution, 18 hours at 35° C.) | MIC Enterococcus faecalis (GC 6189) (Enterococcus sp.; Enterococcus faecalis (GC 6189); broth dilution, 18 hours at 35° C.) | MIC Enterococcus faecium (GC 4556) (Enterococcus sp.; Enterococcus faecium (GC 4556); broth dilution, 18 hours at 35° C.) | MIC Enterococcus faecalis (ATCC 29212) (Enterococcus sp.; [1]) | MIC Enterococcus faecalis (GC 2242) (Enterococcus sp.; [1]) | MIC Enterococcus faecalis (GC 2691) (Enterococcus sp.; [1]) | MIC Enterococcus faecalis (GC 3059) (Enterococcus sp.; [1]) | MIC Enterococcus faecalis (GC 4552) (Enterococcus sp.; [1]) | MIC Enterococcus faecalis (GC 4554) (Enterococcus sp.; [1]) | MIC Enterococcus faecalis (GC 6189) (Enterococcus sp.; [1]) | MIC Enterococcus faecium (GC 4556) (Enterococcus sp.; [1]) | MIC Enterococcus faecalis (GC 2242) (Enterococcus sp.; broth dilution, 18 hours at 35° C.; strain GC 2242) | MIC Enterococcus faecalis (GC 2691) (Enterococcus sp.; broth dilution, 18 hours at 35° C.; strain GC 2691) | MIC Enterococcus faecalis (GC 3059) (Enterococcus sp.; broth dilution, 18 hours at 35° C.; strain GC 3059)

CC(c1ccccc1)C1NC(=O)CNC(=O)C(CO)NC(=O)C(C(O)C2CNC(=N)N2C2OC(CO)C(O)C(O)C2O)NC(=O)C(C(O)C2CNC(=N)N2)NC(=O)C(Cc2ccc(O)c(N(C)C)c2)NC1=O (stereo not drawn) [Example 12, Cyclo[glycyl-β-methylphenylalanyl-3-(dimethylamino)tyrosyl-3-(2-iminoimidazolidin-4-yl)-seryl-3-(3-hexopyranosyl-2-iminoimidazolidin-4-yl)serylseryl]]
>128 µg/mL: MIC Escherichia coli (ATCC 25922) (Escherichia coli; strain ATCC 25922, broth dilution) | MIC Escherichia coli (GC 4559) (Escherichia coli; strain GC 4559, broth dilution) | MIC Staphylococcus aureus (ATCC 29213) (Staphylococcus sp.) | MIC Staphylococcus aureus (GC 1131) (Staphylococcus sp.) | MIC Staphylococcus aureus (GC 3051) (Staphylococcus sp.) | MIC Staphylococcus aureus (GC 3053) (Staphylococcus sp.) | MIC Staphylococcus aureus (GC 4541) (Staphylococcus sp.) | MIC Staphylococcus aureus (GC 4542) (Staphylococcus sp.) | MIC Staphylococcus aureus-SMITH (GC 4543) (Staphylococcus sp.; strain GC 4543) | MIC Staphylococcus aureus (GC 4544) (Staphylococcus sp.) | MIC Staphylococcus aureus (GC 4545) (Staphylococcus sp.) | MIC Staphylococcus haemolyticus (GC 4546) (Staphylococcus sp.; strain GC 4546) | MIC Coagulase Negative Staphylococcus (GC 4547) (Staphylococcus sp.; strain GC 4547) | MIC Coagulase Negative Staphylococcus (GC 4548) (Staphylococcus sp.; strain GC 4548) | MIC Coagulase Negative Staphylococcus (GC 4549) (Staphylococcus sp.; strain GC 4549) | MIC Coagulase Negative Staphylococcus (GC 4551) (Staphylococcus sp.; strain GC 4551) | MIC Coagulase Negative Staphylococcus (GC 6257) (Staphylococcus sp.; strain GC 6257) | MIC Enterococcus faecalis (ATCC 29212) (Enterococcus sp.; strain ATCC 29212; broth dilution, 18 hours at 35° C.) | MIC Enterococcus faecalis (GC 2242) (Enterococcus sp.; strain GC 2242; broth dilution, 18 hours at 35° C.) | MIC Enterococcus faecium (GC 2243) (Enterococcus sp.; strain GC 2243; broth dilution, 18 hours at 35° C.) | MIC Enterococcus faecalis (GC 2691) (Enterococcus sp.; strain GC 2691; broth dilution, 18 hours at 35° C.) | MIC Enterococcus faecalis (GC 3059) (Enterococcus sp.; strain GC 3059; broth dilution, 18 hours at 35° C.) | MIC Enterococcus faecalis (GC 4552) (Enterococcus sp.; strain GC 4552; broth dilution, 18 hours at 35° C.) | MIC Enterococcus faecalis (GC 4553) (Enterococcus sp.; strain GC 4553; broth dilution, 18 hours at 35° C.) | MIC Enterococcus faecalis (GC 4554) (Enterococcus sp.; strain GC 4554; broth dilution, 18 hours at 35° C.) | MIC Enterococcus faecium (GC 4556) (Enterococcus sp.; strain GC 4556; broth dilution, 18 hours at 35° C.) | MIC Enterococcus faecium (GC 4557) (Enterococcus sp.; strain GC 4557; broth dilution, 18 hours at 35° C.) | MIC Enterococcus faecalis (GC 6189) (Enterococcus sp.; strain GC 6189; broth dilution, 18 hours at 35° C.) | MIC Streptococcus pneumoniae (ATCC 6301) (Streptococcus sp.; strain ATCC 6301; broth dilution, 18 hours at 35° C.) | MIC Streptococcus pyogenes (GC 4563) (Streptococcus sp.; strain GC 4563; broth dilution, 18 hours at 35° C.)
128 µg/mL: MIC Escherichia coli (GC 4560) (Escherichia coli; strain GC 4560, broth dilution) | MIC Enterococcus avium (GC 4558) (Enterococcus sp.; strain GC 4558; broth dilution, 18 hours at 35° C.) | MIC Streptococcus pneumoniae (GC 1894) (Streptococcus sp.; strain GC 1894; broth dilution, 18 hours at 35° C.) | MIC Streptococcus agalactiae (GC 4564) (Streptococcus sp.; strain GC 4564; broth dilution, 18 hours at 35° C.) | MIC Streptococcus pneumoniae (GC 4565) (Streptococcus sp.; strain GC 4565; broth dilution, 18 hours at 35° C.)
